Assay results published in ChEMBL document CHEMBL1821617, “Monanchocidins B-E: polycyclic guanidine alkaloids with potent antileukemic activities from the sponge Monanchora pulchra” (J Nat Prod, 2011).

Tested on: HL-60
Test: Cytotoxicity against human HL60 cells after 72 hrs by MTS assay
Assay type: functional, cell-based
Details: HL-60, 72 h

SMILES	IC50 [nM]
CC/C=C/[C@@H]1CC[C@]2(C[C@H]3CC[C@H]4[C@@H](C(=O)OC(CC)CCCCCCCCCCCCC[C@@H]5O[C@](O)(CCN)[C@H](O)N(CCCN)C5=O)[C@@]5(CCC[C@H](C)O5)NC(=[N+]34)N2)O1 (stereo partly specified) [MONANCHOCIDIN A]	540
CC[C@@H]1C=CCC[C@]2(C[C@H]3CC[C@H]4[C@@H](C(=O)OCCCCCCCCCCCCCC[C@@H]5O[C@](O)(CCN)[C@H](O)N(CCCN)C5=O)[C@@]5(CCC[C@H](C)O5)NC(=[N+]34)N2)O1 [MONANCHOCIDIN B]	200
CC[C@@H]1C=CCC[C@]2(C[C@H]3CC[C@H]4[C@@H](C(=O)OCCCCCCCCCCCCCCC[C@@H]5O[C@](O)(CCN)[C@H](O)N(CCCN)C5=O)[C@@]5(CCC[C@H](C)O5)NC(=[N+]34)N2)O1 [MONANCHOCIDIN C]	110
CC/C=C/[C@@H]1CC[C@]2(C[C@H]3CC[C@H]4[C@@H](C(=O)OC(CC)CCCCCCCCCCCC[C@@H]5O[C@](O)(CCN)[C@H](O)N(CCCN)C5=O)[C@@]5(CCC[C@H](C)O5)NC(=[N+]34)N2)O1 (stereo partly specified) [MONANCHOCIDIN E]	650
CC/C=C/[C@@H]1CC[C@]2(C[C@H]3CC[C@H]4[C@@H](C(=O)OCCCCCCCCCCCCCC[C@@H]5O[C@](O)(CCN)[C@H](O)N(CCCN)C5=O)[C@@]5(CCC[C@H](C)O5)NC(=[N+]34)N2)O1 [MONANCHOCIDIND]	830
CC(=O)O[C@H]1C(=O)[C@@]2(C)[C@H]([C@H](OC(=O)c3ccccc3)[C@]3(O)C[C@H](OC(=O)[C@H](O)[C@@H](NC(=O)c4ccccc4)c4ccccc4)C(C)=C1C3(C)C)[C@]1(OC(C)=O)CO[C@@H]1C[C@@H]2O [PACLITAXEL]	3.4
